The source of these data is ChEMBL document CHEMBL2040800 (J Med Chem, 2012).

Structures are written as SMILES. ≈ marks a conversion by molar mass, not a printed value.

Series [1] deals with Plasmodium falciparum. Briefly: Antimalarial activity against chloroquine-resistant Plasmodium falciparum K1 after 24 hrs by hypoxanthine incorporation assay. The class given is functional, organism-based. The settings on record: K1, 24 h.
Series [2] relates to Plasmodium falciparum. The experiment in a line: Antimalarial activity against chloroquine-sensitive Plasmodium falciparum NF54 after 24 hrs by hypoxanthine incorporation assay. The class given is functional, organism-based. The conditions noted are these: NF54, 24 h.
Series [3] can be described thus: Partition coefficient, log D of the compound at pH 7.4 by phase gradient HPLC analysis. The class given is physicochemical. The conditions noted are these: octanol/water.
The nature of series [4]: Half life in human liver microsomes at 1 uM. The class given is ADME, Microsome.
A short description of series [5]: Plasma protein binding in human by reverse phase gradient HPLC analysis. The settings on record: read-out: PPB (converted). The class given is ADME, cell-free.
The nature of series [6]: Intrinsic clearance in human liver microsomes at 1 uM up to 60 mins. The class given is ADME, Microsome. The conditions noted are these: read-out: CLH.
The nature of series [7]: Kinetic solubility of the compound in phosphate buffer after 30 mins by nephelometry at pH 6.5. The class given is physicochemical. The conditions noted are these: read-out: Kinetic_solubility.

Turning to `CS(=O)(=O)c1ccc(-c2cnc(N)c(-c3cccnc3)c2)cc1`, the values for the IC50 in the series on Plasmodium falciparum [1] and in the series with Plasmodium falciparum [2] were 818 nM and 575 nM, respectively.

Take `CS(=O)(=O)c1ccc(-c2cnc(N)c(-c3ccc(-n4cccn4)cc3)c2)cc1`: the IC50 (usually the concentration at which inhibition is half-maximal) with Plasmodium falciparum [1] is 220 nM; in the series with Plasmodium falciparum [2], 230 nM.

On to `CS(=O)(=O)c1ccc(-c2cnc(N)c(-c3ccc(N4CCCC4)nc3)c2)cc1`, for which the IC50 is 540 nM with Plasmodium falciparum [1] and 456 nM in the series on Plasmodium falciparum [2].

In the case of `CS(=O)(=O)c1ccc(-c2cnc(N)c(-c3cccc(OC(F)(F)F)c3)c2)cc1`, the IC50 with Plasmodium falciparum [1] was found to be 180 nM; in the series on Plasmodium falciparum [2], 190 nM.

With `CS(=O)(=O)c1ccc(-c2cnc(N)c(-c3ccc(C(F)(F)F)cc3Cl)c2)cc1`, the IC50 with Plasmodium falciparum [1] worked out at 818 nM; in the series on Plasmodium falciparum [2], 806 nM.

Consider `COc1ncccc1-c1cc(-c2ccc(S(C)(=O)=O)cc2)cnc1N`, for which the IC50 in the series on Plasmodium falciparum [1] was determined as 1110 nM; with Plasmodium falciparum [2], 1230 nM.

With `CS(=O)(=O)c1ccc(-c2cnc(N)c(-c3ccc4nccnc4c3)c2)cc1`, the IC50 in the series on Plasmodium falciparum [1] came out at 590 nM; in the series on Plasmodium falciparum [2], 620 nM.

On to `Cc1ccc(-c2cc(-c3ccc(S(C)(=O)=O)cc3)cnc2N)c2cccnc12`, for which the chromatographic logD (in general, a lipophilicity value derived from retention on a column) in series [3] was determined as 2.6. For the same molecule, the half-life – broadly, how long it takes for the measured level to halve – at 1 µM in series [4] was determined as 1.77 h. Moreover, the fraction unbound in series [5] is 0.056. For the same molecule, in series [6], the microsomal CLint at 1 µM is 16 µL/min/mg. In addition, the concentration for half-maximal inhibition (IC50) in the series on Plasmodium falciparum [1] is 33 nM; with Plasmodium falciparum [2], 36 nM. Further, in series [7], the solubility kinetic at 0.5 h was found to be 6.3 µg/mL (≈ 16.2 µM).

Regarding `CS(=O)(=O)c1ccc(-c2cnc(N)c(-c3cnc(N)nc3)c2)cc1`, the IC50 with Plasmodium falciparum [1] and with Plasmodium falciparum [2] was 120 nM each time.

In the case of `CS(=O)(=O)c1ccc(-c2cnc(N)c(-c3ccc4nonc4c3)c2)cc1`, the IC50 with Plasmodium falciparum [1] came to 520 nM; in the series on Plasmodium falciparum [2], 470 nM.

As to `CS(=O)(=O)c1ccc(-c2cnc(N)c(-c3ccc(N4CCOCC4)cc3)c2)cc1`, the IC50 with Plasmodium falciparum [1] was determined as 2400 nM; in the series on Plasmodium falciparum [2] it was 2460 nM.

In the case of `CS(=O)(=O)c1ccc(-c2cnc(N)c(-c3cccc(C(F)(F)F)c3)c2)cc1`, the chromatographic logD in series [3] is 3.3. In series [4], this molecule returned a half-life at 1 µM of more than 4.17 h. Further, the fraction unbound in series [5] is 0.059. Moreover, the microsomal CLint at 1 µM in series [6] is less than 7 µL/min/mg. For the same molecule, the IC50 is 90 nM with Plasmodium falciparum [1] and 110 nM with Plasmodium falciparum [2]. Also, in series [7], the solubility kinetic at 0.5 h worked out at 3.1 µg/mL (≈ 7.9 µM).

In the case of `CS(=O)(=O)c1ccc(-c2cnc(N)c(-c3ccc(CO)nc3)c2)cc1`, the chromatographic logD in series [3] worked out at 1.2. The molecule also displayed a half-life at 1 µM in series [4] of more than 4.17 h. Moreover, the fraction unbound in series [5] is 0.541. Also, in series [6], the microsomal CLint at 1 µM was less than 7 µL/min/mg. In addition, the figures for the IC50 with Plasmodium falciparum [1] and in the series on Plasmodium falciparum [2] were 169 nM and 171 nM, respectively. Moreover, the solubility kinetic at 0.5 h in series [7] was 25 µg/mL (≈ 70.3 µM).

For the molecule `COc1ncc(-c2cc(-c3ccc(S(C)(=O)=O)cc3)cnc2N)cc1Cl`, the IC50 in the series on Plasmodium falciparum [1] is 2130 nM; with Plasmodium falciparum [2] it was 2230 nM.

Consider `CS(=O)(=O)c1ccc(-c2cnc(N)c(-c3ccc(OCCN4CCCC4)cc3)c2)cc1`, for which the IC50 with Plasmodium falciparum [1] is 2160 nM; in the series with Plasmodium falciparum [2], 2070 nM.

For the molecule `CS(=O)(=O)c1ccc(-c2cnc(N)c(-c3ccnc(C(F)(F)F)c3)c2)cc1`, the IC50 in the series with Plasmodium falciparum [1] came to 155 nM; in the series on Plasmodium falciparum [2], 181 nM.

With `Cc1nc2cc(-c3cc(-c4ccc(S(C)(=O)=O)cc4)cnc3N)ccc2s1`, the IC50 in the series with Plasmodium falciparum [1] was 330 nM; with Plasmodium falciparum [2], 390 nM.

In the case of `Cc1ccc(-c2cc(-c3ccc(S(C)(=O)=O)cc3)cnc2N)cc1C(F)(F)F`, the chromatographic logD in series [3] amounted to 3.6. The molecule further showed a half-life at 1 µM in series [4] of 1.25 h. Besides, the fraction unbound in series [5] was 0.031. Further, the microsomal CLint at 1 µM in series [6] came to 23 µL/min/mg. The IC50 in the series with Plasmodium falciparum [1] was found to be 19 nM; in the series with Plasmodium falciparum [2], 21 nM. For the same molecule, the solubility kinetic at 0.5 h in series [7] was found to be 1.6 µg/mL (≈ 3.94 µM).

`COc1ncc(-c2cc(-c3ccc(S(C)(=O)=O)cc3)cnc2N)cn1`: the figures for the half-maximal inhibitory concentration (IC50) with Plasmodium falciparum [1] and in the series with Plasmodium falciparum [2] were 280 nM and 260 nM, respectively.

In the case of `CS(=O)(=O)c1ccc(-c2cnc(N)c(-c3ccoc3)c2)cc1`, the IC50 was found to be 1120 nM in the series with Plasmodium falciparum [1] and 1130 nM in the series on Plasmodium falciparum [2].

On to `CS(=O)(=O)c1ccc(-c2cnc(N)c(-c3cccc(C(=O)NCCO)c3)c2)cc1`, for which the values for the IC50 in the series on Plasmodium falciparum [1] and in the series with Plasmodium falciparum [2] were 634 nM and 603 nM, respectively.
